Assay results: ChEMBL document CHEMBL3808394, “Synthesis and decreasing Aβ content evaluation of arctigenin-4-yl carbamate derivatives” (Bioorg Med Chem Lett, 2016)
The source made the active and inactive calls. The rule behind the calls is not given here.

Tests used:
Type in all cases: cell-based
[1] = target: Amyloid-beta precursor protein (Homo sapiens) (UniProt P05067); experiment: Reduction in amyloid beta 40 content (unknown origin) expressed in HEK293 cells expressing APP K595N/M596L Swedish mutant at 1 uM after 24 hrs by ELISA
Sequence of Amyloid-beta precursor protein (Homo sapiens) (P05067 whole entry): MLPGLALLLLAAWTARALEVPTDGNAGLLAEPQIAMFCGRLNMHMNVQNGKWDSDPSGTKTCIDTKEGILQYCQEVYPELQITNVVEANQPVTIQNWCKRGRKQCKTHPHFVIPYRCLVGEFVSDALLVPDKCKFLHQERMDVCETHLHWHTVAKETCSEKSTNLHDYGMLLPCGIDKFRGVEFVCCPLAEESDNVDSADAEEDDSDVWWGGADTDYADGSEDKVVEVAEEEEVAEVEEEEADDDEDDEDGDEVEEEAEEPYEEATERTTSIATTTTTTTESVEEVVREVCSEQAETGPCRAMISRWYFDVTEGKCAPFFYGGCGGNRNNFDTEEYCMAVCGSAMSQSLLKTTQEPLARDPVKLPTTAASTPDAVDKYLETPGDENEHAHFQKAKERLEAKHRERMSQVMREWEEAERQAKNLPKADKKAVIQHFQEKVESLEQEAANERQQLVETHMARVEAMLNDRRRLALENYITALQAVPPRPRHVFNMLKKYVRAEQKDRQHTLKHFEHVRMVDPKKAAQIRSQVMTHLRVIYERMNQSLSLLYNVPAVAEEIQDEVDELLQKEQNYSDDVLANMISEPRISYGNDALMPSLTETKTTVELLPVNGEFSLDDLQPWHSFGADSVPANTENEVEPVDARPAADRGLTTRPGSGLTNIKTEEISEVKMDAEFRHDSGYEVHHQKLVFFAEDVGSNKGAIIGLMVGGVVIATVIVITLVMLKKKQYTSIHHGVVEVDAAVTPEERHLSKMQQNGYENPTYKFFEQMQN

[2] = target: Amyloid-beta precursor protein (Homo sapiens) (UniProt P05067); experiment: Reduction in amyloid beta 40 content (unknown origin) expressed in HEK293 cells expressing APP K595N/M596L Swedish mutant at 10 uM after 24 hrs by ELISA
[3] = target: Amyloid-beta precursor protein (Homo sapiens) (UniProt P05067); experiment: Reduction in amyloid beta 40 content (unknown origin) expressed in HEK293 cells expressing APP K595N/M596L Swedish mutant at 20 uM after 24 hrs by ELISA
[4] = target: Amyloid-beta precursor protein (Homo sapiens) (UniProt P05067); experiment: Reduction in amyloid beta 40 content (unknown origin) expressed in HEK293 cells expressing APP K595N/M596L Swedish mutant at 0.1 uM after 24 hrs by ELISA

SMILES | inhibition [3] [%] | also measured
COc1ccc(C[C@H]2COC(=O)[C@@H]2Cc2ccc(OC(=O)Nc3cccc(Cl)c3)c(OC)c2)cc1OC | 78.7 | inhibition [1]: Active; inhibition [2]: Active; inhibition [4]: inactive
COc1cc(C[C@H]2C(=O)OC[C@@H]2Cc2ccc(OC)c(OC)c2)ccc1O | 44.6 | inhibition [1]: inactive; inhibition [2]: Active; inhibition [4]: inactive
CCN(CC)C(=O)Oc1ccc(C[C@H]2C(=O)OC[C@@H]2Cc2ccc(OC)c(OC)c2)cc1OC | 11.9 | –
COc1ccc(C[C@H]2COC(=O)[C@@H]2Cc2ccc(OC(=O)Nc3cccc([N+](=O)[O-])c3)c(OC)c2)cc1OC | 63 | –
COc1ccc(C[C@H]2COC(=O)[C@@H]2Cc2ccc(OC(=O)Nc3cc(Cl)cc(Cl)c3)c(OC)c2)cc1OC | 56 | –
CCCNC(=O)Oc1ccc(C[C@H]2C(=O)OC[C@@H]2Cc2ccc(OC)c(OC)c2)cc1OC | 20.3 | –
COc1ccc(C[C@H]2COC(=O)[C@@H]2Cc2ccc(OC(=O)Nc3cccc(Cl)c3C)c(OC)c2)cc1OC | 62.8 | –
COc1ccc(C[C@H]2COC(=O)[C@@H]2Cc2ccc(OC(=O)Nc3cccc(F)c3)c(OC)c2)cc1OC | 61 | –
COc1ccc(Cl)cc1NC(=O)Oc1ccc(C[C@H]2C(=O)OC[C@@H]2Cc2ccc(OC)c(OC)c2)cc1OC | 42.4 | –
COc1ccc(C[C@H]2COC(=O)[C@@H]2Cc2ccc(N3CCCCC3)c(OC)c2)cc1OC | 26.2 | –
CNC(=O)Oc1ccc(C[C@H]2C(=O)OC[C@@H]2Cc2ccc(OC)c(OC)c2)cc1OC | 29.8 | –
COc1ccc(C[C@H]2COC(=O)[C@@H]2Cc2ccc(OC(=O)N(C)c3cccc(Cl)c3)c(OC)c2)cc1OC | 41 | –
COc1ccc(C[C@H]2COC(=O)[C@@H]2Cc2ccc(OC(=O)Nc3cccc(C#N)c3)c(OC)c2)cc1OC | 56 | –
COc1cccc(NC(=O)Oc2ccc(C[C@H]3C(=O)OC[C@@H]3Cc3ccc(OC)c(OC)c3)cc2OC)c1 | 52.8 | –
CCNC(=O)Oc1ccc(C[C@H]2C(=O)OC[C@@H]2Cc2ccc(OC)c(OC)c2)cc1OC | 36.3 | –
COc1ccc(C[C@H]2COC(=O)[C@@H]2Cc2ccc(OC(=O)NC3CCCCC3)c(OC)c2)cc1OC | 35.4 | –
COc1ccc(C[C@H]2COC(=O)[C@@H]2Cc2ccc(OC(=O)Nc3ccc(F)c(Cl)c3)c(OC)c2)cc1OC | 60.5 | –
COc1ccc(C[C@H]2COC(=O)[C@@H]2Cc2ccc(OC(=O)N(C)C)c(OC)c2)cc1OC | 28.5 | –
COc1ccc(C[C@H]2COC(=O)[C@@H]2Cc2ccc(OC(=O)Nc3ccc(C)c(Cl)c3)c(OC)c2)cc1OC | 53.7 | –
COc1ccc(NC(=O)Oc2ccc(C[C@H]3C(=O)OC[C@@H]3Cc3ccc(OC)c(OC)c3)cc2OC)cc1 | 52.9 | –
COc1ccc(C[C@H]2COC(=O)[C@@H]2Cc2ccc(OC(=O)Nc3ccc(Cl)cc3)c(OC)c2)cc1OC | 66.9 | inhibition [1]: Active; inhibition [2]: Active; inhibition [4]: inactive

More lines, main results first:

inhibition [3] [%] | SMILES | also measured
55 | COc1ccc(C[C@H]2COC(=O)[C@@H]2Cc2ccc(OC(=O)Nc3cccc(C)c3)c(OC)c2)cc1OC | –
43.5 | COc1ccc(C[C@H]2COC(=O)[C@@H]2Cc2ccc(OC(=O)Nc3ccccc3)c(OC)c2)cc1OC | –
49 | COc1ccc(C[C@H]2COC(=O)[C@@H]2Cc2ccc(OC(=O)NCCc3ccccc3)c(OC)c2)cc1OC | –
70.8 | COc1ccc(C[C@H]2COC(=O)[C@@H]2Cc2ccc(OC(=O)N[C@@H](C)c3ccccc3)c(OC)c2)cc1OC | –
61.7 | COc1ccccc1NC(=O)Oc1ccc(C[C@H]2C(=O)OC[C@@H]2Cc2ccc(OC)c(OC)c2)cc1OC | –
45 | COc1ccc(C[C@H]2COC(=O)[C@@H]2Cc2ccc(OC(=O)N[C@H](C)c3ccccc3)c(OC)c2)cc1OC | –
21.4 | COc1ccc(C[C@H]2COC(=O)[C@@H]2Cc2ccc(OC(=O)NC(C)C)c(OC)c2)cc1OC | –
30 | COc1ccc(C[C@H]2COC(=O)[C@@H]2Cc2ccc(OC(=O)N(C)c3ccccc3)c(OC)c2)cc1OC | –
58.3 | COc1ccc(C[C@H]2COC(=O)[C@@H]2Cc2ccc(OC(=O)Nc3ccccc3Cl)c(OC)c2)cc1OC | –
41.3 | COc1ccc(C[C@H]2COC(=O)[C@@H]2Cc2ccc(OC(=O)NCc3ccccc3)c(OC)c2)cc1OC | –
